According to patent US20210371855A1, “METHODS OF INHIBITING PROLIFERATIVE CELLS” (IDEAYA BIOSCIENCES, INC., priority 2018, published 2021):

Experiments:
MLH1 reexpressing cells = experiment: 6-thioguanine sensitivity of MLH1 reexpressing cells; assay type: cell-based; details: FIG. 8C
MMR-proficient cells = details: Yan et al. 2003; cited from earlier work
MMR-deficient cells = details: Yan et al. 2003; cited from earlier work
[1] = tested on: MSI cell lines, HCT116 and RKO; experiment: Proliferation with WRN inhibitors, IncuCyte live-cell counting over 6 days; assay type: cell-based; details: FIG. 12
Protocol: (§1) Cell lines were infected with NucLight Red lentivirus (Essen Biosciences cat #4476) to express a red fluorescent protein in the nucleus thus enabling live-cell counting. Two cell lines with high microsatellite instability (MSI), HCT116 and RKO, and two microsatellite stable (MSS) cell lines, SW620 and SW948, were treated with WRN inhibitors, NSC 19630 (Calbiochem cat #681647) and NSC 617145 (Sigma cat #SML 1005) as follows. Cells were counted and seeded in triplicate into a 96-well plate (500 cells/well for MSI and 1000 cells/well for MSS). The next day, the cells were treated with compounds and monitored over 6 days in an IncuCyte ZOOM instrument. The cell count from the last time point was used to calculate IC50 values using GraphPad Prism 7.

[2] = tested on: MSS cell lines, SW620 and SW948; experiment: as above; assay type: cell-based; details: SW620 and SW948, 6 days, FIG. 12
Protocol: as §1

SMILES	sensitivity of cells to 6-TG (MLH1 reexpressing cells)	sensitivity of cells to 6-thioguanine (MMR-proficient cells)	sensitivity of cells to 6-thioguanine (MMR-deficient cells)	effect on proliferation of MSI cell lines [1]	sensitivity of MSS cell lines to the inhibitors [2]
Nc1nc2nc[nH]c2c(=S)[nH]1 [6-TG, 6-thioguanine]	more sensitive	sensitive	resistant	–	–
CCC(=O)OCN1C(=O)C=CC1=O [NSC 19630]	–	–	–	decreased proliferation	differences in sensitivity
CC(C)(CN1C(=O)C(Cl)=C(Cl)C1=O)CN1C(=O)C(Cl)=C(Cl)C1=O [NSC 617145]	–	–	–	decreased proliferation	differences in sensitivity
